# ChEMBL document CHEMBL4428067, “Drug Discovery against Psoriasis: Identification of a New Potent FMS-like Tyrosine Kinase 3 (FLT3) Inhibitor, 1-(4-((1H-Pyrazolo[3,4-d]pyrimidin-4-yl)oxy)-3-fluorophenyl)-3-(5-(tert-butyl)isoxazol-3-yl)urea, That Showed Potent Activity in a Psoriatic Animal Model” (J Med Chem, 2016)
# Target: T1, Receptor-type tyrosine-protein kinase FLT3 (Homo sapiens, UniProt P36888)
# T1 sequence (P36888 whole entry): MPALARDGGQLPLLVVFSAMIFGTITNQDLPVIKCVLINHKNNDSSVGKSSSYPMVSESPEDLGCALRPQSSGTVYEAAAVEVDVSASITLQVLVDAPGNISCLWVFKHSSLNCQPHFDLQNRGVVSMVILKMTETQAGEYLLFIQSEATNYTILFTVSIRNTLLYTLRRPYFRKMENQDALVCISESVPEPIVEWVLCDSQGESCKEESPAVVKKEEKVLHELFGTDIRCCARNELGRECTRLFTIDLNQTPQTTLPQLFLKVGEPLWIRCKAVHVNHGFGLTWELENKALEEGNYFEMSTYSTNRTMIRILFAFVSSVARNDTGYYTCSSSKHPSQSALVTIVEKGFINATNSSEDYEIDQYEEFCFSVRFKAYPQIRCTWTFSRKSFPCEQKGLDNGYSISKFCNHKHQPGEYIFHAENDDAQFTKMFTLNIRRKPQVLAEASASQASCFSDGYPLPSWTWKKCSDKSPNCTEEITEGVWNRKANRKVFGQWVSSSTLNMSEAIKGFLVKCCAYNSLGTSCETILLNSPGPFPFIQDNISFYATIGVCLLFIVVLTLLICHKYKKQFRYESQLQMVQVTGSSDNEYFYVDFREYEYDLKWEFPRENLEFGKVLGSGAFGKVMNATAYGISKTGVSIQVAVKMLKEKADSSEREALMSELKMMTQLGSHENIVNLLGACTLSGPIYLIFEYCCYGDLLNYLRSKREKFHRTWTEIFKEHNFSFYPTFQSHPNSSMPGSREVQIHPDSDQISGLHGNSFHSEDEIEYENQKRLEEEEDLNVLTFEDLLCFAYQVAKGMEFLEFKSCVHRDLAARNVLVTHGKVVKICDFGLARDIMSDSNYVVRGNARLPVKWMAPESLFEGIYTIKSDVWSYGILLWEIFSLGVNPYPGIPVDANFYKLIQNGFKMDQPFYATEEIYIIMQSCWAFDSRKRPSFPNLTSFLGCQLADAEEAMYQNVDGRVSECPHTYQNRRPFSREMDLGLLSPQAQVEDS
# Assay: Inhibition of recombinant human N-terminal GST-tagged FLT3 (564 to end residues) expressed by baculovirus in Sf21 insect cells measured after 10 mins in presence of [gamma-33P]ATP by scintillation counter method
row,SMILES,IC50
1,Cn1nc(C(F)(F)F)cc1NC(=O)Nc1ccc(Oc2ncnc3[nH]ncc23)c(F)c1,36 nM
2,Cn1nc(C(C)(C)C)cc1NC(=O)Nc1ccc(Oc2ncnc3[nH]ncc23)c(F)c1,66 nM
3,Cc1cc(NC(=O)Nc2cc(C(C)(C)C)on2)ccc1Oc1ncnc2[nH]ncc12,6 nM
4,O=C(Nc1ccc(Oc2ncnc3[nH]ncc23)cc1)Nc1cc(C(F)(F)F)on1,28 nM
5,CC(C)(C)c1cc(NC(=O)Nc2ccc(Oc3ncnc4[nH]ncc34)cc2)n(C(=O)O)n1,10 nM
6,CC(C)(C)c1csc(NC(=O)Nc2ccc(Oc3ncnc4[nH]ncc34)cc2)n1,8 nM
7,CC(C)(C)c1cc(NC(=O)Nc2ccc(Oc3ncnc4[nH]ncc34)c(F)c2)n(-c2ccc(F)cc2)n1,42 nM
8,CC(C)c1cc(NC(=O)Nc2ccc(Oc3ncnc4[nH]ncc34)cc2)n(C)n1,82 nM
9,Cn1ncc2c(Oc3ccc(NC(=O)Nc4cc(C(C)(C)C)on4)cc3)ncnc21,27 nM
10,CC(C)(C)c1cc(NC(=O)Nc2ccc(Oc3ncnc4[nH]ncc34)cc2F)no1,6 nM
11,Cn1nc(C(F)(F)F)cc1NC(=O)Nc1ccc(Oc2ncnc3[nH]ncc23)cc1,38 nM
12,CC(C)(C)c1cc(NC(=O)Nc2ccc(Oc3ncnc4[nH]ncc34)cc2)n(C2CCCC2)n1,52 nM
13,CC(C)(C)c1cc(NC(=O)Nc2ccc(Oc3ncnc4[nH]ncc34)c(F)c2)n(-c2ccccc2)n1,56 nM
14,Cc1cc(Oc2ncnc3[nH]ncc23)ccc1NC(=O)Nc1cc(C(C)(C)C)on1,657 nM
15,Cn1nc(C(C)(C)C)cc1NC(=O)Nc1ccc(Oc2ncnc3[nH]ncc23)cc1,62 nM
16,CC(C)n1ncc2c(Oc3ccc(NC(=O)Nc4cc(C(C)(C)C)on4)cc3)ncnc21,217 nM
17,CC(C)(C)c1cc(NC(=O)Nc2ccc(Oc3ncnc4c3cnn4CCN3CCOCC3)cc2)no1,449 nM
18,CC(C)(C)c1cc(NC(=O)Nc2ccc(Oc3ncnc4[nH]ncc34)c(F)c2)n(C2CCCC2)n1,53 nM
19,O=C(Nc1ccc(Oc2ncnc3[nH]ncc23)cc1)Nc1nc2ccccc2s1,294 nM
20,CC(C)(C)c1cc(NC(=O)Nc2ccc(Oc3ncnc4[nH]ncc34)c(Cl)c2)no1,2 nM
21,O=C(Nc1ccc(Oc2ncnc3[nH]ncc23)cc1)Nc1nc(-c2ccccc2)cs1,73 nM
22,CC(C)(C)c1cc(NC(=O)Nc2ccc(Oc3ncnc4[nH]ncc34)cc2)on1,8 nM
23,CN(C)CCCn1ncc2c(Oc3ccc(NC(=O)Nc4cc(C(C)(C)C)on4)cc3)ncnc21,80 nM
24,CC(C)(C)c1cc(NC(=O)Nc2ccc(Oc3ncnc4[nH]ncc34)cc2)no1,11 nM
25,CC(C)(C)c1cc(NC(=O)Nc2ccc(Oc3ncnc4[nH]ncc34)cc2)n(-c2ccccc2)n1,50 nM
